Laboratory results as given in PMC9323974, “Palladium(II) Complexes of Substituted Salicylaldehydes: Synthesis, Characterization and Investigation of Their Biological Profile” (Pharmaceuticals, 2022).
Where “and” joins values, the source holds several entries; their conditions need not be identical. Identical values can stand only once. Like-named read-outs stand apart in the source and are kept apart here.

Columns and labels:
[1] = test system: S. aureus, B. subtilis, E. coli, X. campestris; test: MIC stated for all tested bacterial strains; type: cell-based; conditions: all tested microbes
Protocol: S2 Antibacterial activity
The antimicrobial activity of the compounds was evaluated by determining their respective MIC values towards two Gram–(–) (Escherichia coli NCTC 29212 (E. coli) and Xanthomonas campestris ATCC 1395 (X. campestris)) and two Gram–(+) (Staphylococcus aureus ATCC 6538 (S. aureus) and Bacillus subtilis ATCC 6633 (B. subtilis)) bacterial species. Cultures of these microbial strains were grown on a rich selective agar medium and stored at 4°C. The selective media used were Nutrient Agar or Broth for B. subtilis and S. aureus, Yeast Mold Agar or Broth for X. campestris and Luria Agar or Broth for E. coli. Cells picked from the surface of the stored cultures were used to initiate liquid pre–cultures of the same selective medium at an initial turbidity of roughly 1 McFarland unit. Pre–cultures were incubated for 24 h in a rotary shaking incubator and subsequently they were used to inoculate the test cultures used for the determination of MIC at an initial turbidity of 0.5 McFarland units. The test cultures consisted of Mueller –Hinton broth (Deben Diagnostics Ltd) containing different concentrations of the compounds.
Different concentrations were achieved as follows: the compounds were freshly dissolved in DMSO to a concentration of 1 mg mL–1 and they were diluted with DMSO, using the method of progressive double dilution. Therefore, working solutions with decreasing concentrations of the compounds under investigation were achieved. The working solutions were subsequently diluted to the final desired concentration by addition to the growth medium at a proportion of 2:98. MIC values were determined as the lowest concentrations of the tested compounds that inhibited visible growth of each respective organism after a 24 h incubation [ S3]. Bacterial growth was determined by measuring the turbidity of appropriately diluted cultures at 600 nm with reference to equally diluted sterile growth medium and the inhibition achieved was calculated by comparing the turbidity of each culture to the average of the turbidity of three non–inhibited cultures. All test cultures were grown in triplicates and for the determination of MIC, growth had to be inhibited in at least two cultures of the triplicate. Incubation temperature at all stages was 37°C except for X. campestris that was cultivated at 28°C [S4].

CT DNA = conditions: cited from earlier work
EB-DNA adduct (CT DNA) = conditions: cited from earlier work
BSA = target: T1, BSA (Bos taurus, UniProt P02769); conditions: cited from earlier work
T1 construct: purchased Sigma-Aldrich Co
T1 sequence (P02769 25-607): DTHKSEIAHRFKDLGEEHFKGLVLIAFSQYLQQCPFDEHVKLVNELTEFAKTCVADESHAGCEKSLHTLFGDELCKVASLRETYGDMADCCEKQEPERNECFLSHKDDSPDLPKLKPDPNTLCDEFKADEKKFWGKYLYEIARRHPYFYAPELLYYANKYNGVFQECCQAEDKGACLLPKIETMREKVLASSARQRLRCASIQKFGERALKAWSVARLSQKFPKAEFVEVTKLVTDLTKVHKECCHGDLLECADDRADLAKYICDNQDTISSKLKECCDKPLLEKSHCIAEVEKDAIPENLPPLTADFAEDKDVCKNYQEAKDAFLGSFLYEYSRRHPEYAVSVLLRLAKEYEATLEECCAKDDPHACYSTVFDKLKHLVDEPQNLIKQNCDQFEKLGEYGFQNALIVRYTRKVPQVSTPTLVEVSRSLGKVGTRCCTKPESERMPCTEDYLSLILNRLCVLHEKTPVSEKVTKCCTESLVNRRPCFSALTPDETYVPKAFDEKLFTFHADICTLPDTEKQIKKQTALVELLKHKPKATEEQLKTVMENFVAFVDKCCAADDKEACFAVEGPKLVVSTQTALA

SMILES | MIC ([1]; read-out: MIC) [mg/L] | Kb (DNA-binding constant) (CT DNA) | KSV (Stern–Volmer constant), EB-DNA (EB-DNA adduct (CT DNA)) | kq (EB-DNA quenching constant) (EB-DNA adduct (CT DNA)) | ΔΙ/Ι0 (%) EB-DNA fluorescence quenching (EB-DNA adduct (CT DNA)) [%] | K BSA-binding constant (BSA) | kq BSA-quenching constant (BSA) | MIC [1]
CCN(CC)c1ccc(C=O)c(O)c1 [4-Et2N-saloH, 4-diethylamino-salicylaldehyde, reference compound] | > 200 | – | – | – | – | – | – | –
COc1ccc(C=O)c(O)c1 [4-OMe-saloH, 4-methoxy-salicylaldehyde, reference compound] | > 200 | 9.25 (±0.12) × 10^5 M^−1 | 5.19 (±0.17) × 10^4 M^−1 | 2.26 (±0.07) × 10^12 M^−1s^−1 | 62.5 | 4.11 (±0.23) × 10^5 M^−1 | 1.16 (±0.14) × 10^13 M^−1 s^−1 | –
O=Cc1cc(Br)cc(Br)c1[O][Pd][O]c1c(Br)cc(Br)cc1C=O [Complex 2, [Pd(3,5-diBr-salo)2]] | – | – | – | – | – | – | – | 25 μg/mL and 38 μM
